The text below walks through data of patent US4418192A, “Anthracyclinone trisaccharide compounds” (priority 1981, dated 1983).

≈ marks a conversion by molar mass, not a printed value.

One data set deals with L 1210 leukemia cells. Put plainly: Inhibition of growth of L 1210 leukemia cells in culture. The class given is cell-based. Conditions: Mus musculus, L1210, 48 h; L 1210 cells, RPMI 1640 with 20% calf serum, 37° C., 2 days; read-out: IC50 Cell growth. The procedure:
L 1210 culture cells (5×10^4 cells/ml; final cell concentration) were inoculated to RPMI 1640 medium (Roswell Park Memorial Institute 1640 medium) containing 20% calf serum and then one of the anthracyclinone glycosides listed in Table 4 was added to make a final concentration of 0.1-5 μg/ml. After incubation at 37° C. for 2 days in a CO2 incubator, the number of cells was counted. Based on these counts, the 50% inhibitory concentration (IC50) of each test compound on the growth of L 1210 leukemia cells was calculated relative to the control test.

For data set [1], the system named is DNA synthesis in L 1210 cells. As to the kind of experiment: Inhibition of DNA synthesis in L 1210 cells (radioactive precursor incorporation). Format: cell-based. The following applies: Mus musculus, L1210; L 1210 cells, 15 min pre-incubation, 60 min with radioactive precursor (^14 C-uridine or ^14 C-thymidine); read-out: IC50 DNA synthesis. The procedure:
(§1) For measurement of IC50 on the synthesis of nucleic acids, 5×10^5 L 1210 cells/ml were pre-cultured at 37° C. for 1-2 hours in RPMI 1640 medium containing 10% calf serum in a CO2 incubator. One of the anthracyclinone glycosides listed in Table 4 was added and incubated for a further 15 minutes. Then 0.05 μCi/ml of ^14 C-uridine or ^14 C-thymidine was added and incubated for a further 60 minutes. At the end of incorporation of the radioactive compound, 10% trichloroacetic acid was poured into the cell suspension for termination of the reaction as well as forced precipitation. The acid-insoluble fraction was collected, rinsed three times with 5% trichloroacetic acid and then dissolved in formic acid for measurement of radioactivity. Based on the radioactivities of the test and control runs, IC50 was calculated.

Data set [2] relates to RNA synthesis in L 1210 cells. As to the kind of experiment: Inhibition of RNA synthesis in L 1210 cells (radioactive precursor incorporation). The class given is cell-based. Conditions: Mus musculus, L1210; L 1210 cells, 15 min pre-incubation, 60 min with radioactive precursor (^14 C-uridine or ^14 C-thymidine); read-out: IC50 RNA synthesis. The procedure: as §1
For data set [3] the following is noted: in words; clinical use as antitumor chemotherapeutics; cited from earlier work.

As to `COc1cccc2c1C(=O)c1c(O)c3c(c(O)c1C2=O)C[C@@](O)(C(=O)CO)C[C@@H]3O[C@H]1C[C@H](N)[C@H](O)[C@H](C)O1` [Adriamycin, reference compound], the figures for the IC50 (in the data set with L 1210 leukemia cells; in data set [1]; in data set [2]) were 0.018 µg/mL (≈ 0.0331 µM), 1.25 µg/mL (≈ 2.3 µM) and 0.49 µg/mL (≈ 0.902 µM), respectively. Besides, the side effects entry in data set [3] was “often cause undesirable side effects”.
